Entries after “also recorded” stand apart in the source; their conditions may differ.
What was measured:
[1] = tested on: Lewis lung carcinoma; conditions: mice with Lewis lung carcinoma; various administration schedules; cited from earlier work
[2] = tested on: HEK293A TDP1-/- cells; assay: Topotecan cytotoxicity alone or in combination, colorimetric test, HEK293A TDP1-/- clones C6, G6, F7; assay type: cell-based, human
From the text: TDP1 knockout HEK293A clones were obtained in the same way as the previously described TDP1 knockout HEK293FT clones. Briefly, two 20-nt protospacer sequences flanking the first protein coding exon of human TDP1 gene were selected using https://www.benchling.com/ (accessed date 1 November 2020). Oligonucleotides were cloned in plasmid pSpCas9(BB)-2A-GFP (PX458). pSpCas9(BB)-2A-GFP (PX458) was a gift from Feng Zhang (Addgene plasmid # 48138; http://n2t.net/addgene:48138; RRID: Addgene_48138). HEK293A cells were transfected with plasmids pX458-TDP1-gRNA1 and pX458-TDP1-gRNA2 (0.25 µg of each) using Lipofectamine 3000 Reagent (Thermofisher Scientific, Waltham, MA, USA). Growth medium contained DMEM/F12 (Thermofisher Scientific, Waltham, MA, USA) 1:1, 10% FBS (Thermofisher Scientific, Waltham, MA, USA), 100 U/mL penicillin–streptomycin (Thermofisher Scientific, Waltham, MA, USA), and 1 × GlutaMAX (Thermofisher Scientific, Waltham, MA, USA). […] Single cell clones grew for two weeks, and genome DNA was analyzed on CRISPR/Cas9-mediated deletions in TDP1 gene by PCR amplification of target region with primers: TDP1-scF 5′-[…]-3′ and TDP1-scR 5′-[…]-3′. […]
Cytotoxicity of the compounds was examined against human cell lines HEK293A (human embryonic kidney)—WT and TDP1-deficient (Tdp1-/-), and HeLa (cervical cancer) using an EZ4U colorimetric tests (Biomedica, Vienna, Austria) or xCELLigence DP Real-Time Cell Analyzer (ACEA Biosciences, Santa Clara, CA, USA). […] After formation of a 30–50% monolayer, tested compounds were added to the medium, and the cell culture was monitored for 3 days. […]
In our previous work, the cytotoxic effect of Tpc and the TDP1 inhibitors, monoterpene 3-carene derivatives, was established; both were measured separately and jointly using a panel of HEK293FT TDP1 knockout isogenic clones. […] No cleavage activity was detected in the clones’ C6, G6, and F7 cell extracts in contrast to control WT and purified TDP1. […]

[3] = tested on: HeLa cells; assay: Topotecan cytotoxicity in combination with TDP1 inhibitors, colorimetric test, HeLa; assay type: cell-based, human
Procedure: (§1) Cytotoxicity of the compounds was examined against human cell lines HEK293A (human embryonic kidney)—WT and TDP1-deficient (Tdp1-/-), and HeLa (cervical cancer) using an EZ4U colorimetric tests (Biomedica, Vienna, Austria) or xCELLigence DP Real-Time Cell Analyzer (ACEA Biosciences, Santa Clara, CA, USA). Cell lines were obtained from the Russian Cell Culture Collection (RCCC) Institute of Cytology RAS (St. Petersburg, Russia). The cells were grown in DMEM/F12 medium (Thermo Fisher Scientific, Waltham, MA, USA), with 1× GlutaMAX (Thermo Fisher Scientific, Waltham, MA, USA), 50 IU/mL penicillin, and 50 μg/mL streptomycin (Thermo Fisher Scientific, Waltham, MA, USA), and in the presence of 10% fetal bovine serum (Biolot, Saint-Petersburg, Russia) in 5% CO2 atmosphere. Control cells were grown in the presence of 1% DMSO where indicated. After formation of a 30–50% monolayer, tested compounds were added to the medium, and the cell culture was monitored for 3 days. […] The measurements were carried out in three parallel experiments.
The combination index (CI) values were determined for different concentrations of Tpc and the enamines 11a–d at 2 and 5 μM. […] The CI values were calculated with the CompuSyn version 1.0 software. The CI plot at different fraction-affected (Fa) was determined for Tpc (0.3, 0.5, 1, 2, and 4 μM) and the Tdp1 inhibitors (2 and 5 μM).

[4] = tested on: HEK293A WT cells; assay: Topotecan cytotoxicity in combination with TDP1 inhibitors, colorimetric test, HEK293A WT; assay type: cell-based, human
Procedure: as §1
There was no difference between WT and the mutant cells.

[5] = tested on: HEK293A cells; assay: Intrinsic cytotoxicity, EZ4U colorimetric test, HEK293A; assay type: cell-based, human; conditions: Figure 6
Procedure: as §1
(§2) The intrinsic cytotoxicity of the four lead compounds (11a–d) was examined using a colorimetric test (Figure 6).

[6] = target: T1, TDP1 (Homo sapiens, UniProt Q9NUW8); assay: Real-time fluorescence detection of TDP1 activity (FAM/BHQ1 oligonucleotide biosensor); assay type: biochemical; conditions: as repeated in Table S1; read-out: IC50
T1 construct: made in house; host or cells: E. coli

[7] = tested on: HEK293A WT cells; assay: xCELLigence impedance-based real-time cell growth assay, alone or with Tpc; design: species or system human
Procedure: as §1
This stimulation was also confirmed for HEK293A WT cells using the xCELLigence DP Real-Time Cell Analyzer impedance-based assay (Figure 9). […] The stimulation effect depends on the concentration of compounds 11a and 11c (Figure 9B,C).
(A). Cell growth of HEK293A cells in the control wells without compounds added (black), with 50 nM Tpc (red), 40 µM 11a (dark green), or 40 µ M 11c (violet). (B,C) Cell growth of HEK293A cells with 50 nM Tpc only (red) and in combination with 5 µM (green), 10 µM (dark blue), 20 µM (pink), or 40 µM (blue) 11a (B) or 11c (C).

[8] = tested on: HeLa cells; assay: Intrinsic cytotoxicity, EZ4U colorimetric test, HeLa; assay type: cell-based, human; conditions: Figure 6
Procedure: as §1, §2

[9] = tested on: Krebs 2 ascites tumors; design: method as in PMID 33871444; conditions: Krebs 2 ascites tumors in mice; cited from earlier work

T1 sequence (Q9NUW8 whole entry): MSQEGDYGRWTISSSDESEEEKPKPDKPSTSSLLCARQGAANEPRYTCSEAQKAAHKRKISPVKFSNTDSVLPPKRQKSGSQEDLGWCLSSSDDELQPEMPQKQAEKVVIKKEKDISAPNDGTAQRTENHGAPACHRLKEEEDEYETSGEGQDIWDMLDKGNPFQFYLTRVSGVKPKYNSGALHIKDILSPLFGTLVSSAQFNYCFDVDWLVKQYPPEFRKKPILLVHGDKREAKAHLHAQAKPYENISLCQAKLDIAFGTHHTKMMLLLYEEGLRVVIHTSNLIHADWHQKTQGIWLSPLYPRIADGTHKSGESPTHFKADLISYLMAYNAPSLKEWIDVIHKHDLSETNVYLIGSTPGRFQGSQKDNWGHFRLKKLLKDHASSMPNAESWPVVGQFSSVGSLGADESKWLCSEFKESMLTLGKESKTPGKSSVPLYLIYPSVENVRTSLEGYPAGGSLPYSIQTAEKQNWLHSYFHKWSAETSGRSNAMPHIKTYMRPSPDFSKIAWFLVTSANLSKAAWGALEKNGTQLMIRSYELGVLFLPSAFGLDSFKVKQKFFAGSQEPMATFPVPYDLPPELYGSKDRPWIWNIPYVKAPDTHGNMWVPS

CC(=O)c1c(O)c(C)c(O)c2c1OC1=CC(=O)/C(=C(/C)NCCCc3cc(C(C)(C)C)c(O)c(C(C)(C)C)c3)C(=O)[C@@]12C [5b]
antimetastatic activity [1]: strong antimetastatic activity

CC(=O)c1c(O)c(C)c(O)c2c1OC1=CC(=O)/C(=C(/C)NCCC3=CC[C@H]4C[C@@H]3C4(C)C)C(=O)[C@@]12C [11c, (2R,4E)-10-Acetyl-4-[1-({2-[(1R,5S)-6,6-dimethylbicyclo[3.1.1]hept-2-en-2-yl]ethyl}amino)ethylidene]-11,13-dihydroxy-2,12-dimethyl-8-oxatricyclo[7.4.0.0^2,7]trideca-1(13),6,9,11-tetraene-3,5-dione]
effect on cell growth in combination with Tpc, compared to Tpc (in words) ([2]; HEK293A Tdp1-/- cells, combination with Tpc): stimulation of cell growth
effect on Tpc cytotoxicity (in words) [3]: enhanced topotecan’s cytotoxicity; also recorded: synergistic effect; also recorded: enhanced Tpc cytotoxicity
effect on Tpc cytotoxicity / cell growth, compared to Tpc (in words) [4]: reduced it; also recorded: stimulation of cell growth; also recorded: stimulated cell growth
intrinsic cytotoxicity (in words) [5]: non-cytotoxic
IC50 [6]: 320 nM
effect on cell growth with Tpc, compared to Tpc ([7]; 50 nM Tpc + 5, 10, 20 or 40 µM compound): stimulated cell growth
toxicity of compound alone (in words) ([7]; 40 µM compound): non-toxic
intrinsic cytotoxicity (in words) [8]: non-cytotoxic

CC[C@@]1(O)C(=O)OCc2c1cc1n(c2=O)Cc2cc3c(CN(C)C)c(O)ccc3nc2-1 [Tpc, topotecan, reference compound]
sensitivity of TDP1-/- cells to Tpc compared to WT ([2]; HEK293A clones C6, G6, F7 vs WT, colorimetric test): more sensitive to Tpc compared to WT
antitumor effect, given separately [9]: antitumor effect

From paper PMC8301776, “New Hybrid Compounds Combining Fragments of Usnic Acid and Monoterpenoids for Effective Tyrosyl-DNA Phosphodiesterase 1 Inhibition” (Biomolecules, 2021)
